In US9206198B2, “Inhibitors of the renal outer medullary potassium channel” (Merck Sharp & Dohme Corp., priority 2012, dated 2015) one finds IC50 data, which are given here for 34 molecules.

pIC50: −log10 of the molar value.

The target in this assay is hROMK (hKir1.1) (Homo sapiens (Human), UniProt P48048). Briefly: Thallium Flux Assay (ROMK channel functional thallium flux assay, FLIPR-Tetra). It counts as cell-based. The settings on record: HEK293 cells stably expressing hROMK. The protocol: Cell Culture Conditions— HEK293 cells stably expressing hROMK (hKir1.1) were grown at 37° C. in a 10% CO2 humidified incubator in complete growth media: Dulbecco's Modified Eagle Medium supplemented with non-essential amino acids, Penicillin/Streptomycin/Glutamine, G418 and FBS. At >80% confluency, aspirate the media from the flask and rinse with 10 mL Calcium/Magnesium-free PBS. Add 5 mL of 1× trypsin (prepared in Ca/Mg Free PBS) to T-225 flask and return flask to 37° C./CO2 incubator for 2-3 minutes. To dislodge the cell, gently bang the side of the flask with your hand. Triturate the cells completely and then transfer the cells to 25 mL complete media. Centrifuge at 1,500 rpm for 6 min followed by resuspension in complete growth media and determine cell concentration. For typical re-seeding, 4E6 cells/T-225 flask will attain >80% confluency in 4 days. Under ideal growth conditions and appropriate tissue culture practices, this cell line is stable for 40-45 passages.
Chain of hROMK (hKir1.1) (P48048 whole entry): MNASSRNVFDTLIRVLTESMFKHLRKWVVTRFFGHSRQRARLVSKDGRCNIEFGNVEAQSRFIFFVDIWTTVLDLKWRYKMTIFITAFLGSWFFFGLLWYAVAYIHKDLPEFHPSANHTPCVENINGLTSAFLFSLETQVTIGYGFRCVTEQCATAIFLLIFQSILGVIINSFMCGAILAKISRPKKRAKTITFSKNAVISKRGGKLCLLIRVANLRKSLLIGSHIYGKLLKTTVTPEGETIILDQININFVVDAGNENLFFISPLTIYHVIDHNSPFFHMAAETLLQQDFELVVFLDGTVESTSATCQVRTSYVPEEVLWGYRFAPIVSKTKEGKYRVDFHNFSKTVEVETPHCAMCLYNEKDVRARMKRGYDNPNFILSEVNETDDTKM
FluxOR Kit Components (Invitrogen F10017)
• FluxOR™ Reagent (Component A) • FluxOR™ Assay Buffer (Component B)—10× Concentrate • PowerLoad™ Concentrate (Component C)—100× Concentrate • Probenecid (Component D)—Lyophilized sample is kept at −20° C. Water soluble, 100×after solubilization in 1 mL water. Store at 4° C. • FluxOR™ Chloride-free Buffer (Component E)—5× Concentrate • Potassium sulfate (K2SO4) Concentrate (Component F)—125 mM in water. Store at 4° C. • Thallium sulfate (Tl2SO4) Concentrate (Component G)—50 mM in water. Store at 4° C. • DMSO (dimethyl sulfoxide, Component H)—1 mL (100%) Reagent Preparation: FluxOR Working Solutions • 1000× FluxOR™ Reagent: Reconstitute a vial of component A in 100 μl DMSO; Mix well; Store 10 μl aliquots at −20° C. • 1× FluxOR™ Assay Buffer: Dilute Component B 10-fold with water; Adjust pH to 7.4 with Hepes/NaOH; Filter and store at 4° C. • Probenecid/Assay Buffer: 100 mL of 1× FluxOR™ Assay Buffer; 1 mL of reconstituted component D; Store at 4° C. • Loading Buffer (per microplate): 10 μl 1000× FluxOR™ Reagent; 100 μl component C; 10 mL Probenecid/Assay Buffer • Compound Buffer (per microplate): 20 mL Probenecid/Assay Buffer; 0.3 mM ouabain (10 mM ouabain in water can be stored in amber bottle/aluminum foil at room temperature); Test compound • 1× FluxOR™ Chloride-Free Buffer: Prepare 1× working solution in water. Can be stored at room temperature • Stimulant Buffer (prepared at 5× final concentration in 1× FluxOR™ Chloride-Free Buffer): 7.5 mM Thallium sulfate and 0.75 mM Potassium sulfate (to give a final assay concentration of 3 mM Thallium 0.3 mM Potassium). Store at 4° C. when not in use. If kept sterile, this solution is good for months.
Assay Protocol—The ROMK channel functional thallium flux assay is performed in 384 wells, using the FLIPR-Tetra instrument. HEK-hKir1.1 cells are seeded in Poly-D-Lysine microplates and kept in a 37° C.-10% CO2 incubator overnight. On the day of the experiment, the growth media is replaced with the FluxOR™ reagent loading buffer and incubated, protected from light, at ambient temperature (23-25° C.) for 90 min. The loading buffer is replaced with assay buffer±test compound followed by 30 min incubation at ambient temperature, where the Thallium/Potassium stimulant is added to the microplate.
• 1. Seed HEK-hKir1.1 cells ([…] at 20,000 cells/well) in 384-well PDL coated Microplates • 2. Allow cells to adhere overnight in humidified 37° C./10% CO2 incubator • 3. Completely remove cell growth media from microplate and replace with 25 μl loading buffer • 4. Incubate Microplate at room temperature, protected form light, for 90 min • 5. Remove loading buffer and replace with 25 μl 1× Assay Buffer±test compound. • 6. Incubate microplate at room temperature, protected from light, for 30 min • 7. At FLIPR-Tetra 384: Add stimulant (Thallium/Potassium) solution to microplate and monitor fluorescence. Excitation=400 nm, Emission=460 & 580 nm. Collect data for 10 min.
One may read the pIC50 as the negative decadic logarithm of the IC50, by convention in mol/L. The low end stands for a large IC50, the high end for a small IC50. With `CC1=C(N2CCC3(CCN(C[C@H](O)c4ccc5c(c4C)COC5=O)CC3F)C2=O)COC1=O` (single isomer, unassigned) [Example 27], the pIC50 was 6.68.
Then `CC1=C(N2CCC3(CCN(C[C@H](O)c4ccc5c(c4C)COC5=O)CC3F)C2=O)COC1=O` (single isomer, unassigned) [Example 28], with 6.72; and `CC1=C(N2C(=O)C3(CCN(C[C@H](O)c4ccc5c(c4C)COC5=O)CC3)CC2C)COC1=O` (single isomer, unassigned) [Example 29], with 7.15; and `Cc1c([C@@H](O)CN2C3CCC2CC2(CC(C)N(C4=CC(=O)OC4)C2=O)C3)ccc2c1COC2=O` (single isomer, unassigned) [Example 40], with 7.70.
In the case of `Cc1c([C@H](O)CN2C3CCC2CC2(CC(C)N(C4=CC(=O)OC4)C2=O)C3)ccc2c1COC2=O` (single isomer, unassigned) [Example 42] it was 7.00; in that of `CCC1CC2(CCN(C[C@H](O)c3ccc4c(c3C)COC4=O)CC2)C(=O)N1C1=CC(=O)OC1` (single isomer, unassigned) [Example 67], 7.70.
`CCc1c(C(O)CN2CCC3(CC2)CCN(C2=C(C)C(=O)OC2)C3=O)ccc2c1COC2=O` (single isomer, unassigned) [Example 74]: the pIC50 was 6.70.
In the case of `CC1=C(N2CCC3(CCN(CC(O)c4ccc5c(c4C4CC4)COC5=O)CC3)C2=O)COC1=O` (single isomer, unassigned) [Example 77] it was 6.62; in that of `CC1=C(N2CCC3(CCN(CC(O)c4ccc5c(c4Cl)COC5=O)CC3)C2=O)COC1=O` (single isomer, unassigned) [Example 78], 6.57; in that of `CC1=C(N2CCC3(CCN(CC(O)c4ccc5c(c4F)COC5=O)CC3)C2=O)COC1=O` (single isomer, unassigned) [Example 81], 6.72.
Then `CC1=C(N2CCC3(CCN(C(CO)Cc4ccc5c(c4C)COC5=O)CC3)C2=O)COC1` (single isomer, unassigned) [Example 84A], with 7.22.
In the case of `CC1=C(N2CCC3(CCN(C(CO)Cc4ccc5c(c4C)COC5=O)CC3)C2=O)COC1` (single isomer, unassigned) [Example 84B] it was 7.15; in that of `CC1=C(N2CCC3(CCN(C(C)(C)C(O)c4ccc5c(c4C)COC5=O)CC3)C2=O)COC1=O` (single isomer, unassigned) [Example 85A], 6.92.
`CC1=C(N2CCC3(CCN(C(C)(C)C(O)c4ccc5c(c4C)COC5=O)CC3)C2=O)COC1=O` (single isomer, unassigned) [Example 85B] gave a pIC50 of 8.00.
Then `CC1=C(N2CCC3(CCN(CCc4ccc5c(c4C)COC5=O)CC3)C2=O)COC1=O` [Example 1, 8-(2-(4-methyl-1-oxo-1,3-dihydroisobenzofuran-5-yl)ethyl)-2-(4-methyl-5-oxo-2,5-dihydrofuran-3-yl)-2,8-diazaspiro[4.5]decan-1-one], with 8.00; and `CO[C@@H](CN1CCC2(CC1)C[C@H](C)N(C1=CC(=O)OC1)C2=O)c1ccc2c(c1C)COC2=O` [Example 2], with 7.30.
Then `Cc1c([C@@H](O)CN2CCC3(CC2)CC(C)N(C2=CC(=O)OC2)C3=O)ccc2c1COC2=O` (stereo partly drawn) [Example 6, 8-((R)-2-Hydroxy-2-(4-methyl-1-oxo-1,3-dihydroisobenzofuran-5-yl)ethyl)-3-methyl-2-(5-oxo-2,5-dihydrofuran-3-yl)-2,8-diazaspiro[4.5]decan-1-one], with 7.52; and `Cc1c([C@@H](O)CN2CCC3(CC2)C[C@@H](C)N(C2=CC(=O)OC2)C3=O)ccc2c1COC2=O` [Example 6A], with 7.70.
On to `CC1=C(N2CCC3(CCN(C[C@@H](O)c4ccc5c(c4C)COC5=O)CC3)C2=O)COC1=O` [Example 8, 8-[(2S)-2-hydroxy-2-(4-methyl-1-oxo-1,3-dihydro-2-benzofuran-5-yl)ethyl]-2-(4-methyl-5-oxo-2,5-dihydrofuran-3-yl)-2,8-diazaspiro[4.5]decan-1-one], for which the pIC50 was 7.52.
In the case of `CC1=C(N2CCC3(CCN(C[C@H](O)c4ccc5c(c4C)COC5=O)CC3O)C2=O)COC1=O` (stereo partly shown) [Example 26] it was 6.64; in that of `Cc1c([C@@H](O)CN2CCC3(CC2)CCN(C2=C(C4CC4)C(=O)OC2)C3=O)ccc2c1COC2=O` [Example 31], 7.40; in that of `CC1=C(N2CC(=O)C3(CCN(C[C@H](O)c4ccc5c(c4C)COC5=O)CC3)C2=O)COC1=O` [Example 36], 7.52.
In the case of `CC1=C(N2CCC3(CCN(C[C@@H](O)c4cc5c(cc4C)C(=O)OC5)CC3)C2=O)COC1=O` [Example 37] it was 7.52; in that of `CC1=C(N2CCC3(CCN(C[C@H](O)c4cc5c(cc4C)C(=O)OC5)CC3)C2=O)COC1=O` [Example 38], 7.70.
In the case of `Cc1c([C@@H](O)CN2C3CCC2CC2(CC(C)N(C4=CC(=O)OC4)C2=O)C3)ccc2c1COC2=O` (stereo partly shown) [Example 39] it was 7.70.
Molecule `Cc1c([C@H](O)CN2C3CCC2CC2(CC(C)N(C4=CC(=O)OC4)C2=O)C3)ccc2c1COC2=O` (stereo partly shown) [Example 41] had a pIC50 of 6.62.
Consider `Cc1c([C@@H](O)CN2CCC3(C=CN(C4=CC(=O)OC4)C3=O)CC2)ccc2c1COC2=O` [Example 44], for which the pIC50 was 7.40.
As for `CC1=C(N2CCC3(CC4CN(C)CC(C3)N4C[C@H](O)c3ccc4c(c3C)COC4=O)C2=O)COC1=O` (stereo partly shown) [Example 45], the pIC50 is 6.80.
Then `CC1=C(N2CCC3(CC4CN(C)CC(C3)N4C[C@@H](O)c3ccc4c(c3C)COC4=O)C2=O)COC1=O` (stereo partly shown) [Example 46], with 6.85; and `CC1=C(N2CCC3(CCN(C[C@H](F)c4ccc5c(c4C)COC5=O)CC3)C2=O)COC1=O` [Example 47, 8-[(2R)-2-fluoro-2-(4-methyl-1-oxo-1,3-dihydro-2-benzofuran-5-yl)ethyl]-2-(4-methyl-5-oxo-2,5-dihydrofuran-3-yl)-2,8-diazaspiro[4.5]decan-1-one], with 7.40.
Then `CC1=C(N2CCC3(CCN(C[C@@H](F)c4ccc5c(c4C)COC5=O)CC3)C2=O)COC1=O` [Example 48, 8-[(2S)-2-fluoro-2-(4-methyl-1-oxo-1,3-dihydro-2-benzofuran-5-yl)ethyl]-2-(4-methyl-5-oxo-2,5-dihydrofuran-3-yl)-2,8-diazaspiro[4.5]decan-1-one], with 7.70; and `CO[C@@H](CN1CCC2(CC1)CCN(C1=C(C)C(=O)OC1)C2=O)c1ccc2c(c1C)COC2=O` [Example 49, 8-[(2R)-2-methoxy-2-(4-methyl-1-oxo-1,3-dihydro-2-benzofuran-5-yl)ethyl]-2-(4-methyl-5-oxo-2,5-dihydrofuran-3-yl)-1-oxo-2-aza-8-azoniaspiro[4.5]decane], with 7.40; and `CCO[C@@H](CN1CCC2(CC1)CCN(C1=C(C)C(=O)OC1)C2=O)c1ccc2c(c1C)COC2=O` [Example 50, 8-[(2R)-2-ethoxy-2-(4-methyl-1-oxo-1,3-dihydro-2-benzofuran-5-yl)ethyl]-2-(4-methyl-5-oxo-2,5-dihydrofuran-3-yl)-2,8-diazaspiro[4.5]decan-1-one], with 7.52.
In the case of `CC1=C(N2CCC3(CCN([C@@H](C)[C@H](O)c4ccc5c(c4C)COC5=O)CC3)C2=O)COC1=O` [Example 53A] it was 8.00.
